Results: ChEMBL document CHEMBL5724914, “Linking interpersonal differences in gut microbiota composition and drug biotransformation activity” (2024)

Key:
[1] = (§1) The drug is tested on WLS-007 corresponding to human gut metagenome with ENA study accession number: PRJEB37062 and ENA sample accession number: ERS12561742 for biotransformation under anaerobic condition. The drug concentrations were measured over 9 timepoints collected between 0 and 24 hours of incubation by liquid-chromatography-coupled mass spectrometry (LC–MS); conditions: 2 µM
[2] = human gut metagenome, 24 h, 2 µM
[3] = human gut metagenome, 24 h, 2 µM; remark: listed apart in the source
[4] = human gut metagenome, 24 h, 2 µM; remark: listed apart in the source
[5] = as §1, with “Z-025” for “WLS-007”, “rabbit” for “human”, “ERS12561824” for “ERS12561742”; conditions: 2 µM
[6] = human gut metagenome, 24 h, 2 µM; remark: listed apart in the source
[7] = human gut metagenome, 24 h, 2 µM; remark: listed apart in the source
[8] = human gut metagenome, 24 h, 2 µM; remark: listed apart in the source
[9] = human gut metagenome, 24 h, 2 µM; remark: listed apart in the source
[10] = human gut metagenome, 24 h, 2 µM; remark: listed apart in the source
[11] = human gut metagenome, 24 h, 2 µM; remark: listed apart in the source
[12] = human gut metagenome, 24 h, 2 µM; remark: listed apart in the source
[13] = human gut metagenome, 24 h, 2 µM; remark: listed apart in the source
[14] = as §1, with “WLS-350” for “WLS-007”, “ERS12561789” for “ERS12561742”; conditions: 2 µM
[15] = as §1, with “WLS-039” for “WLS-007”, “ERS12561746” for “ERS12561742”; conditions: 2 µM
[16] = as §1, with “Z-017” for “WLS-007”, “mouse” for “human”, “ERS12561816” for “ERS12561742”; conditions: 2 µM
[17] = as §1, with “WLS-010” for “WLS-007”, “ERS12561743” for “ERS12561742”; conditions: 2 µM
[18] = as §1, with “WLS-082” for “WLS-007”, “ERS12561751” for “ERS12561742”; conditions: 2 µM
[19] = as §1, with “WLS-240” for “WLS-007”, “ERS12561773” for “ERS12561742”; conditions: 2 µM
[20] = as §1, with “Z-010” for “WLS-007”, “to” for “to human gut”, “ERS12561810” for “ERS12561742”; conditions: 2 µM
Also: call rule not given here.

| Structure (SMILES) | Bacterial Biotransformation [1] | Bacterial Biotransformation [2] | Bacterial Biotransformation [3] | Bacterial Biotransformation [4] | Bacterial Biotransformation [5] | Bacterial Biotransformation [6] | Bacterial Biotransformation [7] | Bacterial Biotransformation [8] | Bacterial Biotransformation [9] | Bacterial Biotransformation [10] | Bacterial Biotransformation [11] | Bacterial Biotransformation [12] | Bacterial Biotransformation [13] | Bacterial Biotransformation [14] | Bacterial Biotransformation [15] | Bacterial Biotransformation [16] | Bacterial Biotransformation [17] | Bacterial Biotransformation [18] | Bacterial Biotransformation [19] | Bacterial Biotransformation [20] |
| --- | --- | --- | --- | --- | --- | --- | --- | --- | --- | --- | --- | --- | --- | --- | --- | --- | --- | --- | --- | --- |
| CN(C)CCC=C1c2ccccc2C=Cc2ccccc21 [CYCLOBENZAPRINE] | Compound metabolized | Compound metabolized | Compound metabolized | Compound metabolized | Compound metabolized | Compound metabolized | Compound metabolized | Compound metabolized | Compound metabolized | Compound metabolized | Compound NOT metabolized | Compound NOT metabolized | Compound metabolized | Compound metabolized | Compound metabolized | Compound NOT metabolized | Compound metabolized | Compound metabolized | Compound metabolized | Compound metabolized |
| O=C(Nc1ccccc1)OCC(CN1CCCCC1)OC(=O)Nc1ccccc1 (stereo not given) [DIPERODON] | Compound NOT metabolized | Compound metabolized | Compound metabolized | Compound NOT metabolized | Compound metabolized | Compound metabolized | Compound NOT metabolized | Compound metabolized | Compound metabolized | Compound metabolized | Compound NOT metabolized | Compound NOT metabolized | Compound NOT metabolized | Compound metabolized | Compound NOT metabolized | Compound NOT metabolized | Compound metabolized | Compound metabolized | Compound metabolized | Compound metabolized |
| CC(C)N(CCC(C(N)=O)(c1ccccc1)c1ccccn1)C(C)C.O=P(O)(O)O (stereo not given) [DISOPYRAMIDE PHOSPHATE] | Compound metabolized | Compound NOT metabolized | Compound NOT metabolized | Compound metabolized | Compound NOT metabolized | Compound NOT metabolized | Compound NOT metabolized | Compound metabolized | Compound NOT metabolized | Compound metabolized | Compound NOT metabolized | Compound NOT metabolized | Compound metabolized | Compound NOT metabolized | Compound NOT metabolized | Compound NOT metabolized | Compound NOT metabolized | Compound NOT metabolized | Compound NOT metabolized | Compound NOT metabolized |
| C[C@@H](CO)NC(=O)[C@@H]1C=C2c3cccc4[nH]cc(c34)C[C@H]2N(C)C1.O=C(O)/C=C\C(=O)O [ERGONOVINE MALEATE] | Compound NOT metabolized | Compound NOT metabolized | Compound metabolized | Compound metabolized | Compound NOT metabolized | Compound metabolized | Compound metabolized | Compound metabolized | Compound metabolized | Compound NOT metabolized | Compound metabolized | Compound NOT metabolized | Compound NOT metabolized | Compound metabolized | Compound metabolized | Compound NOT metabolized | Compound metabolized | Compound metabolized | Compound metabolized | Compound NOT metabolized |
| CCN(CC)C(C)CN1c2ccccc2Sc2ccccc21 (stereo not given) [ETHOPROPAZINE] | Compound metabolized | Compound metabolized | Compound metabolized | Compound metabolized | Compound NOT metabolized | Compound metabolized | Compound metabolized | Compound metabolized | Compound metabolized | Compound metabolized | Compound metabolized | Compound NOT metabolized | Compound metabolized | Compound metabolized | Compound metabolized | Compound NOT metabolized | Compound metabolized | Compound metabolized | Compound metabolized | Compound metabolized |
| Cc1nc(-c2ccc(OCC(C)C)c(C#N)c2)sc1C(=O)O [FEBUXOSTAT] | Compound NOT metabolized | Compound metabolized | Compound metabolized | Compound metabolized | Compound NOT metabolized | Compound metabolized | Compound metabolized | Compound metabolized | Compound metabolized | Compound metabolized | Compound metabolized | Compound NOT metabolized | Compound metabolized | Compound metabolized | Compound metabolized | Compound NOT metabolized | Compound metabolized | Compound metabolized | Compound metabolized | Compound metabolized |
| CC(C)(C(=O)O)c1ccc(C(O)CCCN2CCC(C(O)(c3ccccc3)c3ccccc3)CC2)cc1 (stereo not given) [FEXOFENADINE] | Compound NOT metabolized | Compound NOT metabolized | Compound NOT metabolized | Compound NOT metabolized | Compound NOT metabolized | Compound NOT metabolized | Compound NOT metabolized | Compound NOT metabolized | Compound NOT metabolized | Compound NOT metabolized | Compound NOT metabolized | Compound NOT metabolized | Compound NOT metabolized | Compound NOT metabolized | Compound NOT metabolized | Compound NOT metabolized | Compound NOT metabolized | Compound NOT metabolized | Compound NOT metabolized | Compound NOT metabolized |
| COc1ccc2c3c1O[C@H]1C[C@@H](O)C=C[C@@]31CCN(C)C2 [GALANTAMINE] | Compound NOT metabolized | Compound NOT metabolized | Compound NOT metabolized | Compound metabolized | Compound NOT metabolized | Compound NOT metabolized | Compound NOT metabolized | Compound NOT metabolized | Compound NOT metabolized | Compound NOT metabolized | Compound NOT metabolized | Compound NOT metabolized | Compound metabolized | Compound metabolized | Compound NOT metabolized | Compound NOT metabolized | Compound metabolized | Compound NOT metabolized | Compound metabolized | Compound metabolized |
| Cc1ccc(S(=O)(=O)NC(=O)NN2CC3CCCC3C2)cc1 (stereo not given) [GLICLAZIDE] | Compound NOT metabolized | Compound metabolized | Compound metabolized | Compound metabolized | Compound NOT metabolized | Compound metabolized | Compound metabolized | Compound metabolized | Compound metabolized | Compound metabolized | Compound metabolized | Compound NOT metabolized | Compound metabolized | Compound metabolized | Compound metabolized | Compound NOT metabolized | Compound metabolized | Compound metabolized | Compound metabolized | Compound metabolized |
